Assay [1] deals with P-gp, GST and SOD in MCF7/R cells. The assay is described as follows: Western blot of classical drug resistance genes. In kind it is cell-based. The following applies: 24 h. Here is the method: FIG. 15A is a Western blofshowing the expression of P-gp, GST and SOD in wild type (W) drug sensitive and resistant (R) MCF7 cells. […] The cells were treated for 24 h with each drug alone or the combination of both, after that, expression of drug resistance molecules was determined by Western blot using specific antibodies. […] The cells were incubated for 24 hours with doxorubicin in the absence or the presence of Tetrac, after that they were washed and then solubilized. Radioactivity associated with the cell lysates was counted and compared between the two cell lines either treated or not with Tetrac. The data represent an average of 3 determinations±SE.

The test system of assay [2] is GL261 murine brain tumor cells. Kind of assay: GL261 clonogenic survival after single doses of 250 kVp x-rays. In kind it is cell-based. Here is the method:
To irradiate 25 cm^2 flasks, an x-ray machine was used and (Philips 250 kVp Therapeutic X-ray Machine, Einhoven, […]) operated at 250 kVp and 15 mA with added filtration of 0.4 mm Thoreaus filter. The target to source distance was approximately 30 cm. Dose rates were measured using an R-meter (Victoreen R-meter, Cleveland, Ohio), and converted to absorbed (Gy) doses using appropriate temperature, pressure, and R to Gy conversion factors. The dose rate was 1 Gy per min. Flasks were irradiated at ambient temperature.
For […] analyses, survival data lying at or below 36.8% survival were analyzed by using the log fractional survival (log F×S) versus dose (D). Data were fit using linear regression analysis (SigmaPlot, V. 10, Systat Corp., Point Richmond, Calif.) to obtain the Y-intercept (or n, the extrapolation number) and the slope (1/D0), and their 95% confidence limits. (See Goldstein, A. In: Biostatistics, New York, The MacMillan Co., 1964, p. 140-146). The D0 value (Gy) is defined as the inverse of the slope, and the corrected Dq value (Gy) was then defined using the relationship: Dq(Gy)=ln n×D0(Gy) The 95% confidence limits on Dq were defined using error propagation. (See Chase, et al., In: Principles of Radioisotope Methodology. Minneapolis, Minn. Burgess Publ. Co., 1962, p. 68, 87-90). Statistics: LQ Analysis
For LQ analyses, data lying between a fractional survival of 1.00 and 0.05 were used. The fractional survival data at each dose were transformed using the relationship (−ln F×S/D) and plotted against dose (D). A regression analysis was performed to yield the LQ equation along with their 95% confidence limit values using a t-table with the appropriate (N−1) degrees of freedom. (See Goldstein, A. In: Biostatistics, New York, The MacMillan Co., 1964, p. 140-146).
To determine the Tetrac modification factor (TMF), the survival at 2 Gy obtained for control cells was divided by the survival at 2 Gy for Tetrac treated cells. The 95% confidence limits on the ratio were determined using error propagation techniques. (See Chase, et al. In: Principles of Radioisotope Methodology, Minneapolis, Minn., Burgress Publ. Co., 1962, p. 68, 87-90).

Each structure is given as a SMILES string.

For the compound `O=C(O)Cc1cc(I)c(Oc2cc(I)c(O)c(I)c2)c(I)c1` [Tetrac, tetraiodothyroacetic acid], the “expression of P-glycoprotein, SOD and GST-π (in words)” value in assay [1] is listed as “none of these genes was significantly altered”. In addition, in assay [2] (2 μM, graded doses of 250 kVp x-rays), the “sensitization of oxic and hypoxic cells (in words)” value was “sensitize both oxic and hypoxic cells equally”. In addition, the “SF2 (fractional survival at 2 Gy)” value in assay [2] (exponential phase with Tetrac, control 32.7) is on record as 14.2 (10.8-18.8) %. Moreover, in assay [2] (exponentially growing cells), the “increase of the D0 value after addition of Tetrac” value came out at 15%, the “reduction of the Dq value after addition of Tetrac” value amounted to 100% and the “reduction of the extrapolation number n after addition of Tetrac” value is reported as 93%. In assay [2] (plateau phase cells), the “reduction of n after addition of Tetrac” value is 93%, the “reduction of the D0 after addition of Tetrac” value amounted to 6% and the “reduction of the Dq after addition of Tetrac” value was 100%. In assay [2] (unfed plateau phase with Tetrac, control 20.6), the “SF2 (fractional survival at 2 Gy)” value was 7.6%.

Source of the values: patent publication US8802240B2, “Uses of formulations of thyroid hormone analogs and nanoparticulate forms thereof to increase chemosensitivity and radiosensitivity in tumor or cancer cells” (Nanopharmaceuticals LLC, priority 2011, dated 2014).
